Experimental data as given in patent US20240025862A1, “SUBSTITUTED N-PHENYLURACILS AND SALTS THEREOF, AND USE THEREOF AS HERBICIDAL ACTIVE SUBSTANCES” (Bayer Aktiengesellschaft, priority 2020, published 2024).

Assays:
Assay type in all cases: in vivo
[1] = system: Polygonum convolvulus (POLCO); assay: Post-emergence herbicidal action, greenhouse pot test
Procedure, shortened: (§1)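 Activity was scored by eye about 3 weeks after treatment against untreated plants, where 100% means dead plants and 0% means no difference. Plants at the one-leaf stage received a foliar spray of WP or EC formulations in water plus 0.5% additive (600 l/ha, up to 20 g/ha). Plants were grown in sandy loam pots in a greenhouse for 2–3 weeks before spraying.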

Viola tricolor (VIOTR) = assay: as above
Procedure, shortened: as §1

[2] = system: Amaranthus retroflexus (AMARE); assay: as above; details: rated visually after about 3 weeks vs untreated controls, 100% = plants have died
Procedure, shortened: as §1

[3] = system: Pharbitis purpurea (PHBPU); assay: as above
Procedure, shortened: as §1

Avena fatua (AVEFA) = assay: as above; details: rated visually after about 3 weeks vs untreated controls, 100% = plants have died
Procedure, shortened: as §1

[4] = system: Abutilon theophrasti (ABUTH); assay: as above; details: rated visually after about 3 weeks vs untreated controls, 100% = plants have died
Procedure, shortened: as §1

Lolium rigidum (LOLRI) = assay: as above; details: dosage 20 g/ha
Procedure, shortened: as §1

Veronica persica (VERPE) = assay: as above
Procedure, shortened: as §1

[5] = system: Matricaria inodora (MATIN); assay: Post-emergence herbicidal action, greenhouse pot test (also comparative test C)
Procedure, shortened: (§2)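 Greenhouse pot plants in sandy loam were sprayed post-emergence at the one-leaf stage (2–3 weeks after sowing) with WP or EC formulations plus 0.5% additive at 600 l/ha water. Activity was rated visually after about 3 weeks versus untreated controls (100% = dead, 0% = like control); rates were 20 g/ha or less, and 5 g/ha or less in the comparative test.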

[6] = system: Alopecurus myosuroides (ALOMY); assay: as above; details: rated visually after about 3 weeks vs untreated controls, 100% = plants have died
Procedure, shortened: as §2

[7] = system: Echinochloa crus-galli (ECHCG); assay: as above
Procedure, shortened: as §2

Setaria viridis (SETVI) = assay: as above
Procedure, shortened: as §2

Oryza sativa (ORYSA) = assay: Post-emergence crop plant compatibility, greenhouse pot test (also comparative test C); details: for Post-emergence action against ORYSA (crop plant compatibility): vs untreated controls
Procedure, shortened: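 Visual damage versus untreated plants (0% = like control, 100% = plants died) was scored about 3 weeks after a post-emergence spray in greenhouse pots. Treatment: one-leaf stage, WP or EC in water at 600 l/ha with 0.5% additive; a/b/c mark different dosages on the same crop.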

[8] = system: Triticum aestivum (TRZAS); assay: Post-emergence crop plant compatibility, greenhouse pot test; details: vs untreated controls
Procedure, shortened: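 Compatibility was scored as visual % effect against untreated controls about 3 weeks after spraying green plant parts at the one-leaf stage. Formulations (WP/EC) were applied in aqueous form with 0.5% additive, 600 l/ha, to greenhouse-grown pot plants.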

Cn1c(C(F)(F)F)cc(=O)n(-c2cc(Oc3ccccc3OCC(=O)OCc3cccnn3)c(C#N)cc2F)c1=O [I.9-291]
Post-emergence action against POLCO in % ([1]; dosage 1.25 g/ha): 80%
Post-emergence action against POLCO in % ([1]; dosage 5 g/ha): 90%
Post-emergence action against POLCO in % ([1]; dosage 20 g/ha): 100%
Post-emergence action against VIOTR (Viola tricolor (VIOTR); 1.25 g/ha): 100%
Post-emergence action against VIOTR (Viola tricolor (VIOTR); 5 g/ha): 100%
Post-emergence action against VIOTR (Viola tricolor (VIOTR); 20 g/ha): 100%
Post-emergence action at 1.25 g/ha against AMARE in % ([2]; 1.25 g/ha): 100%
Post-emergence action at 5 g/ha against AMARE in % ([2]; 5 g/ha): 100%
Post-emergence action at 20 g/ha against AMARE in % ([2]; 20 g/ha): 100%
Post-emergence action against PHBPU in % ([3]; dosage 1.25 g/ha): 100%
Post-emergence action against PHBPU in % ([3]; dosage 5 g/ha): 100%
Post-emergence action against PHBPU in % ([3]; dosage 20 g/ha): 100%
Post-emergence action at 5 g/ha against AVEFA in % (Avena fatua (AVEFA); 5 g/ha): 80%
Post-emergence action at 20 g/ha against AVEFA in % (Avena fatua (AVEFA); 20 g/ha): 80%
Post-emergence action at 1.25 g/ha against ABUTH in % ([4]; 1.25 g/ha): 100%
Post-emergence action at 5 g/ha against ABUTH in % ([4]; 5 g/ha): 100%
Post-emergence action at 20 g/ha against ABUTH in % ([4]; 20 g/ha): 100%
Post-emergence action against LOLRI in % (Lolium rigidum (LOLRI)): 90%
Post-emergence action against VERPE (Veronica persica (VERPE); 1.25 g/ha): 100%
Post-emergence action against VERPE (Veronica persica (VERPE); 5 g/ha): 100%
Post-emergence action against VERPE (Veronica persica (VERPE); 20 g/ha): 100%
Post-emergence action against MATIN in % ([5]; dosage 5 g/ha): 80%
Post-emergence action against MATIN in % ([5]; dosage 20 g/ha): 100%
Post-emergence action at 1.25 g/ha against ALOMY in % ([6]; 1.25 g/ha): 80%
Post-emergence action at 5 g/ha against ALOMY in % ([6]; 5 g/ha): 90%
Post-emergence action at 20 g/ha against ALOMY in % ([6]; 20 g/ha): 100%
Post-emergence action against ECHCG in % ([7]; dosage 5 g/ha): 90%
Post-emergence action against ECHCG in % ([7]; dosage 20 g/ha): 100%
Post-emergence action against SETVI (Setaria viridis (SETVI); 20 g/ha): 100%
Post-emergence action against SETVI in % (Setaria viridis (SETVI); dosage 1.25 g/ha): 100%
Post-emergence action against SETVI in % (Setaria viridis (SETVI); dosage 5 g/ha): 100%
Post-emergence action against ORYSA (crop plant compatibility) (Oryza sativa (ORYSA); 1.25 g/ha): 0%
Post-emergence action against ORYSA (crop plant compatibility) (Oryza sativa (ORYSA); 5 g/ha): 0%
Post-emergence action against ORYSA in % (Oryza sativa (ORYSA); 20 g/ha, crop plant compatibility): 20%
Post-emergence action against TRZAS (crop plant compatibility) ([8]; 1.25 g/ha): 20%
Post-emergence action against TRZAS (crop plant compatibility) ([8]; 5 g/ha): 20%

Cn1c(C(F)(F)F)cc(=O)n(-c2cc(Oc3ccccc3OCC(=O)OCC3CCCO3)c(Cl)cc2F)c1=O (stereo not shown) [I.7-71, Tetrahydrofuran-2-ylmethyl (2-{2-chloro-4-fluoro-5-[3-methyl-2,6-dioxo-4-(trifluoromethyl)-3,6-dihydropyrimidin-1(2H)-yl]phenoxy}phenoxy)acetate]
pest or weed control at 5 g/ha ([1]; Fallopia convolvulus, 504 h, dosage 5 g/ha, read-out: Post-emergence action against POLCO in %): 100%
pest or weed control at 20 g/ha ([1]; Fallopia convolvulus, 504 h, dosage 20 g/ha, read-out: Post-emergence action against POLCO in %): 100%
pest or weed control at 1.25 g/ha (Viola tricolor (VIOTR); Viola tricolor, 504 h, 1.25 g/ha, read-out: Post-emergence action against VIOTR): 100%
pest or weed control at 5 g/ha (Viola tricolor (VIOTR); Viola tricolor, 504 h, 5 g/ha, read-out: Post-emergence action against VIOTR): 100%
pest or weed control at 20 g/ha (Viola tricolor (VIOTR); Viola tricolor, 504 h, 20 g/ha, read-out: Post-emergence action against VIOTR): 100%
pest or weed control at 1.25 g/ha ([2]; Amaranthus retroflexus, 504 h, 1.25 g/ha, read-out: Post-emergence action at 1.25 g/ha against AMARE in %): 100%
pest or weed control at 5 g/ha ([2]; Amaranthus retroflexus, 504 h, 5 g/ha, read-out: Post-emergence action at 5 g/ha against AMARE in %): 100%
pest or weed control at 20 g/ha ([2]; Amaranthus retroflexus, 504 h, 20 g/ha, read-out: Post-emergence action at 20 g/ha against AMARE in %): 100%
pest or weed control at 1.25 g/ha ([3]; Ipomoea purpurea, 504 h, dosage 1.25 g/ha, read-out: Post-emergence action against PHBPU in %): 100%
pest or weed control at 5 g/ha ([3]; Ipomoea purpurea, 504 h, dosage 5 g/ha, read-out: Post-emergence action against PHBPU in %): 100%
pest or weed control at 20 g/ha ([3]; Ipomoea purpurea, 504 h, dosage 20 g/ha, read-out: Post-emergence action against PHBPU in %): 100%
pest or weed control at 20 g/ha (Avena fatua (AVEFA); Avena fatua, 504 h, 20 g/ha, read-out: Post-emergence action at 20 g/ha against AVEFA in %): 90%
pest or weed control at 1.25 g/ha ([4]; Abutilon theophrasti, 504 h, 1.25 g/ha, read-out: Post-emergence action at 1.25 g/ha against ABUTH in %): 100%
pest or weed control at 5 g/ha ([4]; Abutilon theophrasti, 504 h, 5 g/ha, read-out: Post-emergence action at 5 g/ha against ABUTH in %): 100%
pest or weed control at 20 g/ha ([4]; Abutilon theophrasti, 504 h, 20 g/ha, read-out: Post-emergence action at 20 g/ha against ABUTH in %): 100%
pest or weed control at 20 g/ha (Lolium rigidum (LOLRI); Lolium rigidum, 504 h, read-out: Post-emergence action against LOLRI in %): 80%
pest or weed control at 1.25 g/ha (Veronica persica (VERPE); Veronica persica, 504 h, 1.25 g/ha, read-out: Post-emergence action against VERPE): 100%
pest or weed control at 5 g/ha (Veronica persica (VERPE); Veronica persica, 504 h, 5 g/ha, read-out: Post-emergence action against VERPE): 100%
pest or weed control at 20 g/ha (Veronica persica (VERPE); Veronica persica, 504 h, 20 g/ha, read-out: Post-emergence action against VERPE): 100%
pest or weed control at 1.25 g/ha ([5]; Tripleurospermum inodorum, 504 h, dosage 1.25 g/ha, read-out: Post-emergence action against MATIN in %): 80%
pest or weed control at 20 g/ha ([5]; Tripleurospermum inodorum, 504 h, dosage 20 g/ha, read-out: Post-emergence action against MATIN in %): 100%
pest or weed control at 5 g/ha ([6]; Alopecurus myosuroides, 504 h, 5 g/ha, read-out: Post-emergence action at 5 g/ha against ALOMY in %): 80%
pest or weed control at 20 g/ha ([6]; Alopecurus myosuroides, 504 h, 20 g/ha, read-out: Post-emergence action at 20 g/ha against ALOMY in %): 80%
Post-emergence action at 1.25 g/ha against ECHCG in % ([7]; 1.25 g/ha, rated visually after about 3 weeks vs untreated controls, 100% = plants have died): 100%
pest or weed control at 5 g/ha ([7]; Echinochloa crus-galli, 504 h, dosage 5 g/ha, read-out: Post-emergence action against ECHCG in %): 100%
pest or weed control at 20 g/ha ([7]; Echinochloa crus-galli, 504 h, dosage 20 g/ha, read-out: Post-emergence action against ECHCG in %): 100%
pest or weed control at 20 g/ha (Setaria viridis (SETVI); Setaria viridis, 504 h, 20 g/ha, read-out: Post-emergence action against SETVI): 100%
pest or weed control at 1.25 g/ha (Setaria viridis (SETVI); Setaria viridis, 504 h, dosage 1.25 g/ha, read-out: Post-emergence action against SETVI in %): 100%
pest or weed control at 5 g/ha (Setaria viridis (SETVI); Setaria viridis, 504 h, dosage 5 g/ha, read-out: Post-emergence action against SETVI in %): 100%
Post-emergence action against ORYSA (crop plant compatibility) (Oryza sativa (ORYSA); 1.25 g/ha): 20%
Post-emergence action against TRZAS (crop plant compatibility) ([8]; 1.25 g/ha): 0%
